Test results from patent publication US6833137B1, “Protection against termites” (Bayer CropScience S.A., priority 1996, dated 2004).

Test system: termites
Assay: termite perforation test on gypsum block treated with compound A, separating two chambers
Type: in vivo
Settings: after 21 days; gypsum block sprayed on both faces, 0.05 g/m^2 of compound A; 160 termites in upper chamber
Description: A gypsum block is used which has a surface area of 30 cm^2 and a thickness of 0.8 cm and is covered on both its face with cardboard having a relative density of […] and a thickness of 0.2 mm.
A solution of compound A in propylene glycol is sprayed over both faces of this block in an amount such that the gypsum block contains 0.05 g/m^2 of compound A.
Two vertical cylindrical chambers with a diameter of 5 cm are separated using the gypsum block thus treated. The upper chamber comprises 160 termites placed in damp compost. The lower chamber comprises a piece of wood placed in moistened sand.
After 21 days, a mortality rate equal to 100% is observed.

Work on `N#Cc1nn(-c2c(Cl)cc(C(F)(F)F)cc2Cl)c(N)c1[S+]([O-])C(F)(F)F` (stereo not shown) [compound A, 1-[2,6-Cl2-4-CF3phenyl]-3-CN-4-[SO—CF3]-5-NH2pyrazole] yielded a mortality rate of 100%.
